{
  "source": "patent US10568854B2",
  "about": "“Compositions and methods for treating kabuki syndrome and related disorders” (THE JOHNS HOPKINS UNIVERSITY, priority 2014, dated 2020)",
  "key": {"[1]": {"test_system": "DCX positive cells in the GCL", "assay": "DCX (doublecortin) expression in the GCL, neurogenesis (AR-42 treated mice)", "assay_type": "in vivo, mouse", "from_the_text": "Animals: Kmt2d^+/βGeo mice, also named Mll2Gt^(RRt024)Byg, were acquired from Bay Genomics (University of California). All experimental mice were on a mixed C57BL/6J and 129/SvEv background. Expected Mendelian ratios were observed when heterozygous animals were bred to wild-type. In heterozygous crosses, however, there was uniform embryonic lethality of homozygotes by ED12, the earliest developmental stage assayed. For treatment with AR-42 mice were orally gavaged daily with drug (Selleck Chemicals, Houston, Tex.) solubilized in vehicle (0.5% methylcellulose, 0.1% Tween-80, water) or with vehicle alone. Drug delivery information was kindly provided by Drs. Chen and Kulp from Ohio State University (Huang et al. (2011) Mol. Pharmacol. 79:197-20619). Drug was administered for 14 days and mice were sacrificed on day 15. Morris water maze testing was initiated at day 7 and a dose of 10 mg/kg/day was used for these studies. For quantification of DCX positive cells, doses of 0, 5, 10 and 25 mg/kg/day were used. Genotyping was performed using primers B-GeoF-([…]; SEQ ID NO: 1) and B-GeoR-([…]; SEQ ID NO: 2) that are specific for the targeted allele and TcrdF-([…]; SEQ ID NO: 3) and TcrdR-([…]; SEQ ID NO: 4) that control for sufficient DNA concentration. Real-time PCR using the same primers allows discrimination between the heterozygous and homozygous state for the targeted allele. Maxillary protrusion was evaluated by ten investigators blinded to genotype and they were asked to rate maxillary protrusion on radiographs as either large (2) or small (1). […] All experiments were performed using mouse protocols approved by the Animal Care and Use Committee of Johns Hopkins University School of Medicine. The mouse protocols used for this study are in accordance with the guidelines used by the NIH for mouse care and handling.\nImmunofluorescence: Every 6th brain section was selected and then blocked with 5% Bovine Serum Albumin (BSA) at room temperature followed by incubation with primary antibodies overnight at 4° C. Secondary antibodies were then applied for 1 hour at room temperature, after which sections were mounted onto microscope slides with Vectamount with DAPI (Vector Laboratories, Burlingame, Calif.). Primary antibodies included Doublecortin (DCX) (SC-8066, Santa Cruz Biotechnology, Dallas, Tex., 1:200 goat), trimethylated H3K4 (9727L, Cell Signaling Technology, Beverly, Mass., 1:500 rabbit), and Kmt2d H-300 (SC-292359, Santa Cruz Biotechnology, Dallas, Tex., 1:500 rabbit). Non-specific binding was not observed when sections were sequentially exposed to serum (or IgG when appropriate) from the same species as the primary antibody for each experiment (i.e. rabbit for KMT2D and H3K4me3 and goat for doublecortin), followed by the secondary antibody used for KMT2D and H3K4me3 (anti-rabbit) or doublecortin (anti-goat, FIG. 27).\nGCL and doublecortin area: The area of both the GCL and DCX+ cells was measured using the NS elements 2.0 software (Nikon, Tokyo, JPN). Normalized DCX area was calculated by measuring the DCX+ area of the GCL and setting the baseline (Kmt2d^+/+) fraction to 1. A Student t-test with significance value set at P<0.05 was used for comparison of DCX+ area referenced to GCL area between genotypes and treatment arms."}, "[2]": {"test_system": "H3K4 trimethylation activity in Kmt2d^+/βGeo and Kmt2d^+/+ MEFs", "assay": "H3K4me3 indicator in murine embryonic fibroblasts (MEFs)", "assay_type": "cell-based, mouse", "from_the_text": "An H3K4 trimethylation reporter was also created. This reporter is based on the H3 tail on one end and the TBP associated factor III (TAFIII) homeodomain on the other end; the TAFIII homeodomain only identifies and binds to trimethylated K4 on H3. When the H3K4 site gets trimethylated, the TAFIII homeodomain can bind to the modified H3 tail and bring the two parts of the separated GFP in close proximity. The activity of the epigenetic modification system can be quantified through fluorescence.\nEpigenetic reporter alleles: Epigenetic reporter alleles were synthesized (OriGene, Rockville, Md.) using published sequences for component elements (Baird et al. (1999) Proc. Nail. Acad. Sci. 96:11241-6; Souslova et al. (2007) BMC Biotechnol. 7:37). Single nucleotide mutations were created using the QuickChange Lightening kit (Agilent Technologies Inc, Santa Clara, Calif.). For H4ac indicator, K5R, K8R, K12R, K16R and K20R (MUT indicator) were introduced. For H3K4me3 indicator, K4Q and D890A/W891A and M882A (three separate constructs) were introduced. For transient transfections, mouse embryonic fibroblasts (see below) were transfected with Fugene HD (Promega, Madison, Wis.), 48 hours prior to FACS. […] For drug stimulation, drug was added to the media 24 hours prior to FACS. For stable transfections in T293 (American Type Culture Collection) cells, 10 μg/ml of Blastocidin (Life Technologies, Carlsbad, Calif.) was added to the media for several weeks. For stable transfection in MEFs, the reporter was transferred to a ViraPower Lentiviral Expression System (Life Technologies, Carlsbad, Calif.). After selection with Blastocidin, the drug of interest was added 24 hours prior to FACS. SAHA, AR-42 and MS275 were purchased from Selleck (Selleck Chemicals, Houston, Tex.). […] FACS data were analyzed using FlowJo (Tree Star Inc, Ashland, Oreg.). A plasmid expressing HDAC3 was acquired from Addgene (Cambridge, Mass., plasmid 13819) and transfected into a stable cell line carrying the H4 acetyl reporter allele."}, "[3]": {"test_system": "H3K4 trimethylation and histone acetylation", "conditions": "cited from earlier work"}, "[4]": {"test_system": "H3K4me3 indicator (H3K4 trimethylation machinery activity)", "assay": "H3K4me3 indicator reporter assay, FACS", "assay_type": "cell-based", "conditions": "FIG. 17F", "from_the_text": "Design of the indicator constructs. A genetically encoded histone reporter allele system has been developed which can be used to monitor activity of any histone maintenance machinery component in live cells. Previously, FRET based epigenetic activity systems have been created (Lin and Ting (2004) Angew Chem Int Ed Engl. 24;43 (22):2940-3; Lin et al. (2004) J. Am. Chem. Soc. 19;126(19):5982-3; U.S. Pat. No. 7,056,683). However, FRET-based assays need a complex technological setup which is not widely available and FRET-based assays have been much more difficult to introduce into transgenic mouse models. […] The particular construct design is based on a circularly permutated green fluorescent protein (GFP) that lacks fluorescence unless the two parts of GFP are brought into close proximity by external forces (Baird et al. (1999) Proc. Natl. Acad. Sci. U.S.A. 28;96(20):11241-6). […]\nAn H3K4 trimethylation reporter was also created. […] The activity of the epigenetic modification system can be quantified through fluorescence.\nEpigenetic reporter alleles: Epigenetic reporter alleles were synthesized (OriGene, Rockville, Md.) using published sequences for component elements (Baird et al. (1999) Proc. Nail. Acad. Sci. 96:11241-6; Souslova et al. (2007) BMC Biotechnol. 7:37). […] FACS data were analyzed using FlowJo (Tree Star Inc, Ashland, Oreg.). […]"}},
  "data": [
    {"compound": "CC(C)[C@H](C(=O)Nc1ccc(C(=O)NO)cc1)c1ccccc1", "note": "[AR-42, (S)—N-hydroxy-4-(3-methyl-2-phenylbutanamido)benzamide]", "values": [
      {"measurement": "DCX expression in the GCL", "setting": "[1]; 10 mg/kg/day, older mice (5-6 months), Kmt2d^+/βGeo", "value": "improved"},
      {"measurement": "DCX expression in the GCL", "setting": "[1]; 25 mg/kg/day, Kmt2d^+/+ animals", "value": "reduced DCX expression"},
      {"measurement": "DCX expression in the GCL", "setting": "[1]; 25 mg/kg/day, Kmt2d^+/βGeo mice", "value": "did not improve DCX expression"},
      {"measurement": "DCX expression in the GCL", "setting": "[1]; 25 mg/kg/day, young (1-2 month-old) and old (5-6 month-old), both genotypes", "value": "decreased DCX expression"},
      {"measurement": "neurogenesis (normalized DCX expression)", "setting": "[1]; 1-2 month old Kmt2d^+/βGeo mice, doses 0, 5, 10 mg/kg/day", "value": "dose-dependent increase in neurogenesis"},
      {"measurement": "DCX expression in the GCL", "setting": "[1]; 5 and 10 mg/kg/day, Kmt2d^+/+ or Kmt2d^+/βGeo, both age groups", "value": "preservation or restoration of DCX expression"},
      {"measurement": "dose at which Kmt2d^+/βGeo MEFs achieve untreated wild-type levels of H3K4me3 indicator activity", "setting": "[2]; Kmt2d^+/βGeo MEFs", "value": 5, "unit": "µM"},
      {"measurement": "H3K4 trimethylation activity", "setting": "[2]; Kmt2d^+/βGeo cells treated with HDAC inhibitor", "value": "enhanced"},
      {"measurement": "H3K4me3 indicator activity in MEFs", "setting": "[2]; both genotypes (Kmt2d^+/βGeo, Kmt2d^+/+)", "value": "dose-dependent response"},
      {"measurement": "relative effect on H3K4me3", "setting": "[3]; AR-42 versus MS275, Huang et al. (2011)", "value": "strongest effect on H3K4me3"},
      {"measurement": "effect on H3K4 trimethylation and histone acetylation", "setting": "[3]; Huang et al. (2011)", "value": "increase H3K4 trimethylation and histone acetylation"},
      {"measurement": "H3K4me3 indicator response to increasing levels of drug", "setting": "[4]", "value": "dose dependent response"},
      {"measurement": "cell numbers", "setting": "[4]; higher doses", "value": "decreased cell numbers at higher doses"}
    ]}
  ]
}
